According to patent US6610748B1, “Preventives/remedies for skin aging” (Fujisawa Pharmaceutical Co., Ltd., priority 1998, dated 2003):
Entries after “also recorded” stand apart in the source; their conditions may differ. Structures can show the parent of a compound that is named as a salt. Where two headings read alike, the source gives them in different places.

Columns and labels:
[1] = system: hairless dogs; assay: Skin thickness: thickness of the epidermis (excluding the horny layer) in H-E stained tissue samples of old hairless dogs; type: in vivo, dog; details: for Thickness of the epidermis, value after the arrow (after treatment): FK706 0.2% topical once daily for 3 months; for Thickness of the epidermis, value after the arrow (after treatment) / Thickness of the epidermis, value before the arrow (initial): mean±SD
Description: (§1) The therapeutic efficacy of neutrophil (leukocyte) elastase inhibitors in “dermal aging” was evaluated in hairless dogs.
(§2) Two adult (old) experimental hairless dogs constructed by cross-breeding of a Mexican hairless dog and a beagle dog were used. Old dogs presenting with age-associated fine “wrinkles” , not observed in young dogs, on the body surface were used as subject animals.
(§3) Each drug was applied in one location (a total of 5 locations) on the back (5×5 cm) of each dog. The drug was applied in a dosing volume of about 4 μL/cm^2 once daily (except on Saturdays, Sundays and holidays) for 3 months.

[2] = system: hairless dogs; assay: Skin condition (remission of wrinkles) in old hairless dogs, gross observation and video macroscope; type: in vivo, dog; details: 0.2% and 0.02% in PEG
Description: as §1, §2
5) Polyethylene glycol (PEG) (solvent control) (PEG was used as the solvent for drugs 1˜4)
as §3
1) Skin condition: Gross observation and observation with a video macroscope

[3] = system: hairless dogs; assay: Histology of biopsy samples from old hairless dogs (van Gieson's stain, Weigert's stain); type: in vivo; details: Dog No. 8807, 3 months
Description: The therapeutic efficacy of neutrophil (leukocyte) elastase inhibitors in “dermal aging” was evaluated in hairless dogs. Two adult (old) experimental hairless dogs constructed by cross-breeding of a Mexican hairless dog and a beagle dog were used. Old dogs presenting with age-associated fine “wrinkles” , not observed in young dogs, on the body surface were used as subject animals. Each drug was applied in one location (a total of 5 locations) on the back (5×5 cm) of each dog. The drug was applied in a dosing volume of about 4 μL/cm^2 once daily (except on Saturdays, Sundays and holidays) for 3 months. 2) Histology: Observation of histological changes in biopsy samples by H-E (hematoxylin-eosin) stain (general staining) , van Gieson's stain (staining of collagen fiber) and Weigert's stain (staining of elastin fiber)

[4] = qualitative, by solvent, cited from earlier work
[5] = gross observation, dog No. 8807 (10 yr old, male), about 4 μL/cm2 on the back once daily for 3 months
[6] = gross observation, dog No. 8808 (10 yr old, female), about 4 μL/cm2 on the back once daily for 3 months
[7] = observation with a video macroscope, dog No. 8807, once daily for 3 months
[8] = observation with a video macroscope, dog No. 8808, once daily for 3 months

Row | Compound | Thickness of the epidermis, value after the arrow (after treatment) ([1]; Dog No. 8807) [μm] | Thickness of the epidermis, value before the arrow (initial) ([1]; Dog No. 8807, location treated with FK706 0.2%) [μm] | Thickness of the epidermis, value after the arrow (after treatment) ([1]; Dog No. 8808) [μm] | Thickness of the epidermis, value before the arrow (initial) ([1]; Dog No. 8808, location treated with FK706 0.2%) [μm] | Change in thickness of the epidermis ([1]; location treated with FK706 0.2%, p<0.05 in both Dog 8807 and Dog 8808) | Order of efficacy in the elimination or remission of wrinkles [2, 5] | Order of efficacy in the elimination or remission of wrinkles [2, 6] | Order of efficacy in the elimination or remission of wrinkles [2, 7] | Order of efficacy in the elimination or remission of wrinkles [2, 8] | Histological finding, Weigert's stain (elastin fiber) ([3]; topical) | Histological finding, van Gieson's stain (collagen fiber) ([3]; FK706 0.2% topical) | Solubility ([4]; disodium salt) | Solubility ([4]; dipotassium salt)
1 | CC(C)C(NC(=O)[C@@H]1CCCN1C(=O)[C@@H](NC(=O)c1ccc(C(=O)NCC(=O)O)cc1)C(C)C)C(=O)C(F)(F)F (mixture of isomers) [FK706, 3 (RS)-[[4-(carboxymethylaminocarbonyl)phenyl-carbonyl]-L-valyl-L-prolyl]amino-1,1,1-trifluoro-4-methyl-2-oxopentane] | 26.8±5.9 | 17.0±1.9 | 42.0±9.0 | 24.6±3.6 | increased significantly | FK706·0.1%>FK706·0.02%>FR134043·0.2%=FR134043·0.02% | FK706·0.2%>FK706·0.02%>FR134043·0.2%=FR134043·0.02% | FK706·0.2%>FK706·0.02%>FR134043·0.2%>FR134043·0.02% | FK706·0.2%=FK706·0.02%>FR134043·0.2%=FR134043 0.02% | Growth of elastin fibrils (suspected to be oxytalan fiber which is said to disappear as increasing age) was found across the boundary between the epidermis and dermis | Neogenesis of a thin layer of collagen fiber was found across the boundary between the epidermis and dermis |  | 
2 | C/C=C1\NC(=O)C2NC(=O)C(NC(=O)C(C)C)CCCNC(=O)Nc3cc(OS(=O)(=O)O)c(OS(=O)(=O)O)cc3C[C@@H](C(=O)NC(C(C)C)C(=O)OC2C)N(C)C(=O)C(Cc2ccccc2)N2C(=O)[C@H](CC[C@H]2O)NC1=O (some centres unmarked) [FR134043, WS7622A disulfate ester disodium salt] |  |  |  |  |  | FK706·0.1%>FK706·0.02%>FR134043·0.2%=FR134043·0.02% | FK706·0.2%>FK706·0.02%>FR134043·0.2%=FR134043·0.02% | FK706·0.2%>FK706·0.02%>FR134043·0.2%>FR134043·0.02% | FK706·0.2%=FK706·0.02%>FR134043·0.2%=FR134043 0.02% |  |  | Soluble: water, methanol; also recorded: Insoluble: chloroform, n-hexane | 
3 | WS7622A disulfate ester dipotassium salt |  |  |  |  |  |  |  |  |  |  |  |  | Soluble: water, methanol; also recorded: Insoluble: chloroform, n-hexane
